Laboratory results taken from US20230087994A1, “TARGETED BIFUNCTIONAL DEGRADERS” (YALE UNIVERSITY, priority 2019, published 2023).

Experiments:
[1] = test system: α-DNP antibody; test: Depletion of α-DNP antibody from serum in mice (ELISA); assay type: in vivo; conditions: negative control compound; FIG. 95
Procedure: FIG. 94 illustrates that serum levels of α-DNP antibody decrease more rapidly following repeated treatment with DNP-GN3. Serum antibody levels were measured using an ELISA assay. Each experimental group contained three mice. Statistical differences in experiments involving in vivo depletion of α-DNP antibody were assessed by repeated measures two-way ANOVA with Tukey's tests for post-hoc comparison of simple effects between each of the treatment groups and PBS.
Single doses of DNP-GN3 were also found to be efficacious at mediating α-DNP antibody depletion, albeit less effectively than daily dosing (FIG. 96). […] Therefore, it was concluded that DNP-GN3 is able to mediate the depletion of a monoclonal antibody from serum, and functions across a wide range of target protein concentrations and dosing regimens.
DNP-GN3 was also found to be efficacious in depleting polyclonal α-DNP antibody from serum collected from mice immunized with DNP-keyhole limpet haemocyanin (KLH) (FIG. 97). […] Thus, the small molecule DNP-GN3 is not restricted in function to only monoclonal mouse antibodies, but is also effective at removing polyclonal α-DNP antibodies from circulation in mice.

[2] = Tolerability of DNP-GN3 and DNP-OH3 in mice (body weight, AST, ALT); assay type: in vivo; conditions: all tested concentrations; FIGS. 93A-93C
Procedure: FIGS. 93A-93C illustrate that DNP-GN3 and DNP-OH3 are not toxic to mice at all tested concentrations. FIG. 93A: mouse body weight following treatment with DNP-GN3 or DNP-OH3. Statistical differences were analyzed by T test. FIG. 93B: levels of aspartate transaminase (AST) in treated mice. Dashed lines represent the normal range. FIG. 93C: levels of alanine transaminase (ALT) in treated mice. Dashed lines represent the normal range.

[3] = test system: HepG2 cells; test: DNP-GN3-mediated endocytosis of fluorescently labeled α-DNP antibody by adherent HepG2 cells; assay type: cell-based, human; conditions: competitive binders at high concentrations; FIG. 88
[4] = test system: ASGPR on the surface of immortalized human hepatocyte HepG2 cells; test: DNP-GN3-mediated ternary complex formation: association of fluorescently labeled α-DNP antibody with HepG2 cells in suspension; assay type: cell-based; conditions: competition; FIG. 86B-86C; read-out: IC50, decrease of DNP-GN3-mediated cellular fluorescence
Excerpt: It was investigated whether DNP-GN3 could mediate the formation of a ternary complex between a fluorescently labeled α-DNP antibody and ASGPR on the surface of immortalized human hepatocyte HepG2 cells in suspension. […] The observed bell-shaped response to DNP-GN3 concentration is consistent with the prozone effect commonly observed in systems wherein a ternary complex is formed.

[5] = test system: ASGPR on the surface of HepG2 cells; test: DNP-AF3-mediated ternary complex formation: α-DNP antibody association with HepG2 cells (flow cytometry); assay type: cell-based, human; conditions: 40 nM DNP-AF3, 100 nM α-DNP antibody; FIG. 99; read-out: IC50, inhibition of DNP-AF3-mediated ternary complex formation
Procedure: DNP-AF3 utilizes trivalent display of a higher affinity ASGPR ligand to engage the receptor. First, the effect of DNP-AF3 concentration on α-DNP antibody association with cells was determined (FIG. 98). In these experiments, a constant amount of α-DNP antibody and cells was incubated with various concentrations of DNP-AF3. The mean fluorescence intensity of the cell population was measured using flow cytometry. In order to account for background cellular fluorescence and non-DNP-AF3 mediated antibody association with cells, the mean fluorescence intensity of a sample of cells which had been treated with α-DNP antibody but not DNP-AF3 was subtracted from each data point.
Next, whether increasing concentrations of a competitive binder of the α-DNP antibody inhibits ternary complex formation was investigated. […] However, different preparations of the HepG2 cells and/or compound gave varying mean fluorescence intensity for the cell population between different independent experimental replicates. Therefore, for competition studies, inhibition of ternary complex formation was reported rather than mean fluorescence intensity of the cell population. 100% ternary complex formation is corrected to the fluorescence of a cell population treated with both 40 nM DNP-AF3 and 100 nM α-DNP antibody, while 0% ternary complex formation is corrected to a mixture of cells and α-DNP antibody without DNP-AF3.

[6] = test system: α-DNP antibody; test: Depletion of α-DNP antibody from serum in mice (ELISA); assay type: in vivo; conditions: i.p.; FIG. 79A
[7] = test system: HepG2 cells; test: DNP-AF3-mediated endocytosis of fluorescently labeled α-DNP antibody by HepG2 cells (flow cytometry); assay type: cell-based, human; conditions: 40 nM DNP-AF3, 100 nM antibody; ASF 2.07 μM; AF and GalNAc 1.25 mM; FIG. 105
Procedure: The intracellular fluorescence of cells that were incubated at 37° C. with both fluorescently labeled α-DNP antibody and DNP-AF3 for a given amount of time was examined. Cells were then washed, removed from the plate with trypsin, and subjected to flow cytometry. Trypsin treatment is expected to cleave ASGPR and surface-bound α-DNP antibody from cells, and therefore the cellular fluorescence observed in these assays is expected to arise only from internalized antibodies.
It was then determined if reagents which inhibit ternary complex formation inhibit endocytosis mediated by DNP-AF3. In order to account for non-specific antibody association with cells, the mean fluorescence intensity of an aliquot of cells which had been treated with α-DNP antibody but not DNP-AF3 was subtracted from each reading. […] In the presence of 2.38 μM (0.1 mg/mL) ASOR, the cell population fluorescence was decreased to 4.66e5 (FIG. 105); at this ASOR concentration, ternary complex formation is decreased by approximately 70%. Because ternary complex is not inhibited completely at this concentration of ASOR, it is expected that productive endocytic events are still taking place.

In the case of O=C(CCOCC(COCCC(=O)NCCOCCOCCO)(COCCC(=O)NCCOCCOCCO)NC(=O)CNC(=O)COCCOCCOCCNc1ccc([N+](=O)[O-])cc1[N+](=O)[O-])NCCOCCOCCO [DNP-OH3, reference compound], the “antibody depletion from serum” value [1] is reported as “No accelerated antibody depletion”, the toxicity to mice [2] is reported as “not toxic” and the “effect on DNP-GN3-mediated α-DNP antibody endocytosis” value [3] is reported as “significantly decreased”. For the same compound, the IC50 [4] was 36 nM, the IC50 [5] was 40.6 nM and the “degradation of injected anti-DNP IgG antibodies in mouse serum” value [6] was “did not show such effect”. For the same compound, the “effect on DNP-AF3-mediated α-DNP antibody endocytosis” value [7] was “decreased to near-background levels”.
